Assay results as given in patent US20020127228A1, “PGT and apoptosis” (WELFIDE CORPORATION, priority 1998, published 2002).

Tests used:
[1] = test system: differentiated PC12 cells; experiment: Suppression of apoptosis in differentiated PC12 cells after NGF withdrawal, TUNEL staining; assay type: cell-based, rat; settings: for TUNEL-positive cells (%): NGF withdrawal
Protocol: (§1) (1) After growing rat adrenal pheochromocytoma PC12 cells (obtained by: ATCC; importer: Dainippon Pharmaceutical) with RPMI1640 containing 10 ml/l heat-inactivated horse serum and 5 ml/l heat-inactivated fetal calf serum, culturing was performed with RPMI1640 containing mouse β NGF (100 ng/ml), N2 supplement, and TIP (5 μg/ml transferrin, 5 μg/ml insulin, and 10 ng/ml progesterone). Differentiation to neuron-like cells was performed.
(§2) (2) Differentiated PC12 cells were washed with Neurobasal culture medium. After replacing the culture medium with RPMI1640 not containing β NGF, N2 supplement, and TIP, mouse β NGF antibodies (final concentration: 50 ng/ml) were added. By culturing for 24 hrs, apoptosis was induced.
(§3) 0.01-1 μM) to fresh culture medium during medium replacement and culturing was performed for the same amount of time. As a negative control, a solvent (ethanol) alone was added in the same manner and culturing was performed for the same period of time. Apoptosis detection was performed by Hoechst 33342 staining (at 1 mM with a reaction in 2 minutes at room temperature) after fixation (room temperature for 30 mins) of cells with a 1% glutaraldehyde solution. Observation was made from 5 arbitrary visual fields using a fluorescence microscope. Total cell and apoptotic cells were counted, and incident of apoptosis was calculated.
As regards the apoptosis-suppressing activity of PGE1 in nerve neurons, the manners other than TUNEL staining for detection of apoptosis were in accordance with ones in Experiment 1. The results are indicated in Table2.

[2] = test system: NRK52E cells; experiment: Apoptosis induced by NO donor NOC12 in NRK52E kidney cells; assay type: cell-based, rat; settings: NOC12 0.4 mM, 24 hrs, n 5
Protocol: (§4) 1) Apoptosis was induced by NO (nitrogen monoxide) in kidney cells. NRK52E cells, which are established from a rat renal tubule epithelial cell line, mainly derived from distal were cultured for 24 hours with a chamber slide that was coated with type-I collagen. Afterwards, the cultured medium was changed to a serum-free medium, and apoptosis was induced by addition of NOC12 (0.4 mM) or S-nitroso L-glutathione (GSNO: 1 mM), which are NO donors.
(§5) 4) Inhibitory effect of PGE1 to the induction of apoptosis in kidney cells was investigated PGE1 was added simultaneously with the addition of a NO donor to a final concentration of 1 or 10 μM. After 24 hrs, cells were fixed with a 1% glutaraldehyde solution and stained with Hoechst 33342. Three visual fields were selected arbitrarily per slide, and the ratio of the cells count where nuclear fragmentation and condensation appeared was calculated with respect to the total cells in the field (magnification: 400x). The n was 5.

[3] = test system: SAPK/JNK; experiment: SAPK/JNK activation in PC12 cells after NGF withdrawal, Western blot; assay type: cell-based, rat; design: key to Degree of luminescence: +++ is extremely strong; + is confirmed luminescence; ± is poor luminescence; settings: for Degree of luminescence: phosphorylated JNK band
Protocol: 4) Intercellular signals via SAPK/JNK Stress-activated protein kinase/Jun N-terminal kinase (abbreviated SAPK/JNK) is associated with apoptosis induction. Thus, intercellular signals within cells via SAPK/JNK were investigated based upon effects with respect to variations in SAPK/JNK activity.
The present experiment was performed with Western blot analysis. Individual additives were added to cell culturing medium for PC12 cells in accordance with the aforementioned experiment. Culturing was performed for 1-4 hrs after withdrawal of NGF. PC12 cells were lysed with a buffer solution, centrifuged, and the supernatant of cell lysate was prepared. After said supernatant was incubated with JNK 1 polyclonal antibodies (Santa Cruz Biotechnology) at 4° C. for 1 hr. Protein A sepharose was added to it. The resultant was incubated for 1 hr and the immunoprecipitate as described below was provided. […] of cell lysate was conducted with SDS-PAGE electrophoresis, and transferred to a nylon membrane (Amersham Pharmacia Biotech). Blotting of phosphorylated (active) JNK antibodies (Santa Cruz Biotechnology) was performed with this membrane, and bands were detected in accordance with the instruction manual. Intercellular signals within cells were amplified by chemiluminescence and auto radioactivity methods (FCL, Amersham Pharmacia Biotech).

[4] = test system: NRK52E cells; experiment: Apoptosis induced by NO donor GSNO in NRK52E kidney cells; assay type: cell-based, rat
Protocol: as §4, §5
5) The relationship between PGT inhibitors and kidney cell apoptosis induced by GSNO was examined. With a final concentration of BrCG, which is a PGT inhibitor, of 60 μM, manners other than simultaneous addition with GSNO and PGE1 were in accordance with the aforementioned ones in 4). The PGE1 final concentration was 1 μM. The n was 3.
1) Drugs having suppressing activity on apoptosis inducted in kidney cells by an NO donor were investigated. PGK1 and bicyclo PGE2 were used as test drugs, but other manners were in accordance with Experiment 8. The final concentration of the test drugs was 1 μM. The n was 5.
2) It was investigated the effects of a PGT inhibitor on the apoptosis-suppressing activity of PGK1 and bicyclo PGE2 in kidney cells. With a final concentration of BrCG, which is a PGT inhibitor, of 60 μM, manners other than simultaneous addition of GSNO and test drugs were in accordance with the aforementioned methods in 1). The n was 4.

[5] = test system: differentiated PC12 cells; experiment: Suppression of apoptosis in differentiated PC12 cells after NGF withdrawal, Hoechst 33342 staining; assay type: cell-based, rat; settings: for Incidence of apoptosis (%): 24 hrs, NGF withdrawal, mean ± SEM
Protocol: as §1, §2
(3) A PGE1 ethanol solution was added (final concentration:
as §3
(4) The values obtained were expressed as means±SEM. As for statistical analysis, a student's t-test (hereafter noted as a t-test) was used for two groups and Dunnet's test was used after one-way layout dimensional analysis (one-way ANOVA) for numerous groups; critical values for both were considered to be a significant difference below 5%.

[6] = Hypotensive effect in anesthetized normal rats, mean blood pressure; assay type: in vivo, rat; design: Decrease in blood pressure: unit not given here; settings: 100 μg/kg body weight into caudal artery, mean blood pressure before and after, n 3
Protocol: 2) The hypotensive effect of the test drugs was examined. After anesthetizing normal rats (male, body weight of about 300 g) with intraperitoneal administration of Nembutal, the dorsal region was fixed. Next, a cannula was inserted in the carotid artery and blood pressure was measured through a transducer (Nihon Kohden Corporation); simultaneous recording was made in combination with a polygraph (Nihon Kohden Corporation). After dissolving the test drugs in ethanol, and diluted (x200) with saline. Administration was given in the caudal artery in a dose of 100 μg/kg body weight. The mean blood pressure (MBP) was measured. The decrease in blood pressure was calculated from the measured values before and after administration. The n was 3 per group.

CCCCC[C@H](O)/C=C/[C@H]1[C@H](O)CC(=O)[C@@H]1CCCCCCC(=O)O [PGE1, prostaglandin E1]
Effect on cell apoptosis (in words) ([1]; PGE1 0.1 μM and 1 μM): suppressed cell apoptosis
TUNEL-positive cells (%) ([1]; PGE1 0.1 μM): 13.80 ± 0.75%
TUNEL-positive cells (%) ([1]; PGE1 1 μM): 8.10 ± 1.57%
Incidence of apoptosis (%) ([2]; PGE1 1 μM): 11 ± 2 %
Incidence of apoptosis (%) ([2]; PGE1 10 μM): 6 ± 1 %
Effect on SAPK/JNK activation (in words) ([3]; 1 hr after NGF withdrawal): the activation was suppressed
Degree of luminescence ([3]; PGE1 0.1 μM): +
Degree of luminescence ([3]; PGE1 1 μM): ±
Effect on apoptosis in kidney cells (in words) ([4]; NO donor GSNO): suppressed induction of apoptosis in kidney cells
Incidence of apoptosis (%) ([4]; Table 11, GSNO 1 mM, PGE1 1 μM, 24 hrs, n 5): 10 ± 2 %
Incidence of apoptosis (%) ([4]; Table 11, GSNO 1 mM, PGE1 10 μM, 24 hrs, n 5): 11 ± 3 %
Incidence of apoptosis (%) ([4]; Table 12, GSNO, PGE1 1 μM, n 3): 8 ± 2%
Incidence of apoptosis (%) ([5]; PGE1 0.01 μM): 21.3 ± 1.5%
Incidence of apoptosis (%) ([5]; PGE1 0.1 μM): 19.1 ± 8.1%
Effect on cell apoptosis (in words) ([5]; PGE1 1 μM): suppressed cell apoptosis
Incidence of apoptosis (%) ([5]; PGE1 1 μM): 17.1 ± 0.6%
Decrease in blood pressure [6]: −55
